From patent publication US20230212251A1, “PEPTIDES DERIVED FROM SORTILIN” (UNIVERSITE DE LIMOGES, priority 2019, published 2023)
Like-named read-outs stand apart in the source and are kept apart here.

Tests used:
Type in all cases: cell-based
cells = assay: Cell penetration test via western blot; conditions: 0 to 500 nM in complete culture medium, 24 hours' treatment
Procedure: 3. Extraction of the proteins under denaturing conditions Extraction of the whole proteins is carried out directly on the cell layers, after eliminating the supernatants and rinsing the cells in PBS 1×, or even on cell pellets previously stored at −80° C. It is carried out by incubating the cells with the Laemmli lysis buffer (62.5 mM Tris-HCl ref: 11814273001 ROCHE, pH 6.8, 2% SDS ref: L-4509, Sigma-Aldrich, 25% glycerol ref: G5516, Sigma-Aldrich) made up with 1% (v/v) protease inhibitor cocktail (ref: P8340-1ML, Sigma-Aldrich) and 1% (v/v) phosphatase inhibitor cocktail (ref: P0044-1ML, Sigma-Aldrich), in the proportions […] of buffer for 1.10^6 cells for 30 min over ice. In the case of extraction on the cell layer, a scraper (ref: 179693PK, Nunc, ThermoFisher) is used to collect the cells in the lysis buffer. Lysis is then completed by ultrasound parametered at 60 Hz, amplitude 2 s, for 1 minute (ref: SONIVCX-130-220, VWR). The lysates are then centrifuged at 17,000×g (ref: 75002442, Sorvall, ThermoFisher) for 20 min at 4° C., the supernatant containing the proteins is transferred to a sterile 1.5 mL tube (ref: 0030120086, Eppendorf), and the proteins are assayed by the Bradford method.
5. […] The concentration of the polyacrylamide gels varies from 8 to 15% as a function of the molecular weight of the proteins to be separated and analyzed. […]

A549 cell line = assay: Cell survival measured by XTT (Cell Proliferation Kit II); conditions: XTT dehydrogenase activity, read-out: CI50 (concentration giving 50% inhibition of cell activity)
Procedure: The antineoplastic effect of the synthetic peptide, comprising Tat and a V5 tag of sequence SEQ ID NO 7 was tested on the A549 cell line (adenocarcinoma line having no mutation on the EDFR). A concentration range (0 to 10 μM) of the synthetic peptide of sequence SEQ ID NO 7 according to the invention was incubated for 24, 48 and 72 hours in the cell medium and the dehydrogenase activity thereof (proxy for viability) was measured (Cell Proliferation Kit II (XTT)-Roche) at the end of each incubation, i.e. at 24, 48 and 72 hours. Analysis of the graph representing the activity as a function of the log of the synthetic peptide concentration made it possible to establish CI50 values corresponding to the concentrations for which the peptide results in 50% inhibition of cell activity. These latter are respectively equal to 1.42, 1.52 and 0.57 μM for incubation times of 24, 48 and 72 hours.

[1] = test system: human fibroblasts (non-cancerous cells); assay: Pro-apoptotic effect, real-time IncuCyte Zoom imaging; conditions: peptide 1 μM, 96 hours real time, versus control
Procedure: (§1) In order to study cell death by apoptosis, the cells are seeded at a concentration of 2000 cells per well in 100 μL of culture medium, in 96-well plates. 24 hours later, the cell medium is removed, then the cells are rinsed once with sterile PBS 1× before adding the culture medium containing the different treatments, including the peptide according to the invention at […], and the reagents necessary for analysis of cell death. These latter are: IncuCyte® Caspase-3/7 Green Reagent (ref: 4440; EssenBio) diluted to 1:1000 in the culture medium; IncuCyte® Annexin V Green Reagent (ref: 4642; EssenBio) diluted to 1:200 diluted in the culture medium. Image acquisition is then carried out by positioning the plates in the IncuCyte Zoom® system (Ref: EssenBio) for 96 hours. Four images per well are then obtained, in high definition, every two hours, with the ×10 objective and the phase-contrast and green channels. These acquisitions are carried out automatically and non-invasively. The data are processed automatically with the IncuCyte Zoom® Live-Cell Analysis System (ref: EssenBio).
(§2) The pro-apoptotic effect of the peptide of sequence SEQ ID NO 7 at the concentration of 1 μM was measured in real time using the IncuCyte Zoom® system for 96 hours on the A549 line, on human fibroblasts (non-cancerous cells), as well as on two lines of adenocarcinomas H3255 and H1975, respectively presenting mutations of EGFR that are sensitive (L858R) and resistant (L858R/T790M) to the tyrosine kinase activity receptor inhibitors (TKI) used in the clinic via activation of two markers of apoptosis, namely annexin V and caspases 3 and 7. […] In fact, the levels of expression of these markers are identical under the conditions treated with the peptide and the control conditions. The peptide could therefore have a specific toxicity to cancer cells.

[2] = test system: H3255 adenocarcinoma line (EGFR L858R); assay: as above; conditions: H3255, peptide 1 μM, 96 hours real time
Procedure: as §1, §2

[3] = test system: H1975 adenocarcinoma line (EGFR L858R/T790M); assay: as above; conditions: H1975, peptide 1 μM, 96 hours real time
Procedure: as §1, §2

A549 line = assay: as above; conditions: A549, peptide 1 μM, 96 hours real time
Procedure: as §1, §2

cell nuclei = assay: Subcellular distribution by indirect immunofluorescence; conditions: 2D and 3D confocal imaging
Procedure: The cells are seeded on a 24-well plate on 14 mm diameter glass slides. After each treatment condition, the cells are fixed, either with the complete medium containing paraformaldehyde (PFA) at 3.7% for 20 min at 4° C., or with methanol at −20° C. for 5 min. With methanol the fixation is carried out by dehydration (denaturing of the proteins), while with the aldehydes (formaldehyde) the 3D structure of the protein is preserved (fixing by bridging). The phosphorylations are analyzed after fixing with PFA. After fixing, the cell layer is washed 3 times for 5 minutes with […] PBS. In the case of fixing with PFA, the cells are permeabilized with Triton X-100 at 0.1% in PBS for 10 min at 4° C., then washed again. With regard to fixing with methanol, this confers the advantage of fixing and permeabilizing the cells at the same time. […] Starting from the fixing stage, all the solutions are filtered beforehand over a 0.2 μm filter in order to eliminate the fluorescence artefacts and the background noise. […] Then, three washes of 5 min in PBS are carried out, before incubation of the secondary antibody coupled with an Alexa fluor 488® (green fluorescence) (Table 4) for 1 hour at ambient temperature in the PBS-BSA solution. […]

## GRKKRRQRRRPPQVLIVKKYVCGGRFLVHRYSVLQQHAEANGVDGVDALDTASHTNKSGYHDDSDEDLLEGKPIPNPLLGLDST [SEQ ID NO 7]
cells
  quantity of intracellular peptide detected in the cell lysate (anti-V5 western blot): dose-dependent peptide penetration
A549 cell line; A549, 24 hours incubation
  IC50: 1420 nM
A549 cell line; A549, 48 hours incubation
  IC50: 1520 nM
A549 cell line; A549, 72 hours incubation
  IC50: 570 nM
[1]
  activation of annexin V (marker of apoptosis): does not seem to lead to activation
  activation of caspases 3 and 7 (marker of apoptosis): does not seem to lead to activation
[2]
  level of annexin V (marker of apoptosis): increase
  level of caspases 3 and 7 (marker of apoptosis): increase
[3]
  level of annexin V (marker of apoptosis): increase
  level of caspases 3 and 7 (marker of apoptosis): increase
A549 line
  level of annexin V (marker of apoptosis): increase
  level of caspases 3 and 7 (marker of apoptosis): increase
Cell nuclei
  subcellular distribution of the peptide (anti-V5 immunofluorescence, DAPI): punctiform nuclear distribution
